Results as given in patent US20250025443A1, “COMPOUNDS AND METHODS FOR TREATING CORONA VIRUSES” (CLEAR CREEK BIO, INC., priority 2021, published 2025).

target: SARS-CoV-2 Papain-Like Protease (PLpro) (Severe acute respiratory syndrome coronavirus 2 (2019-nCoV) (SARS-CoV-2), UniProt P0DTD1); assay: biochemical; details: PLpro enzymatic fluorescence assay; class symbols; read-out: PLpro IC50

Question: For “(S)-5-(Azetidin-2-ylmethoxy)-2-methyl-N-(1-(7-morpholinoquinolin-5-yl)cyclopropyl)benzamide [Compound 712]”, which IC50 is on record?
Answer: < 100 nM

Question: `COc1cc(C(C)N2CCC(C(=O)NCc3cccc(F)c3)CC2)c2cccnc2c1` (centres unmarked) [Compound 593, N-(3-Fluorobenzyl)-1-(1-(7-methoxyquinolin-5-yl)ethyl)piperidine-4-carboxamide] was tested. Which IC50 did it give?
Answer: 1000 to 5000 nM

Question: For `Cc1cc(-c2cc(C3(NC(=O)c4cc(OC[C@@H]5CCN5)ccc4C)CC3)c3cccnc3c2)c(C)o1` [Compound 641, (S)-5-(Azetidin-2-ylmethoxy)-N-(1-(7-(2,5-dimethylfuran-3-yl)quinolin-5-yl)cyclopropyl)-2-methylbenzamide], which IC50 is on record?
Answer: < 100 nM

Question: For `Cc1nc(Cl)c(-c2cc(C3(NC(=O)c4cc(OC[C@@H]5CCN5C)ccc4C)CC3)c3cccnc3c2)s1` [Compound 812, (S)-N-(1-(7-(4-Chloro-2-methylthiazol-5-yl)quinolin-5-yl)cyclopropyl)-2-methyl-5-((1-methylazetidin-2-yl)methoxy)benzamide], which IC50 is on record?
Answer: < 100 nM

Question: Which IC50 does the source give for `Cc1ccc(OC[C@@H]2CCN2C)cc1C(=O)NC1(c2cc(N(C)CC(F)(F)F)cc3ncccc23)CC1` [Compound 781, (S)-2-Methyl-N-(1-(7-(methyl(2,2,2-trifluoroethyl)amino)quinolin-5-yl)cyclopropyl)-5-((1-methylazetidin-2-yl)methoxy)benzamide] here?
Answer: < 100 nM

Question: How did the IC50 turn out when `COc1cc(C2(NC(=O)c3cc(OCC45CCCN4CCC5)ccc3C)CC2)c2cccnc2c1` [Compound 559, 5-((Hexahydro-1H-pyrrolizin-7a-yl)methoxy)-N-(1-(7-methoxyquinolin-5-yl)cyclopropyl)-2-methylbenzamide] was run?
Answer: < 100 nM

Question: For `Cc1cc(-c2cc(C3(NC(=O)c4cc(OC[C@@H]5CCN5)ccc4C)CC3)c3cccnc3c2)n[nH]1` [Compound 635, (S)-5-(Azetidin-2-ylmethoxy)-2-methyl-N-(1-(7-(5-methyl-1H-pyrazol-3-yl)quinolin-5-yl)cyclopropyl)benzamide], which IC50 is on record?
Answer: < 100 nM

Question: For `Cc1ccc(OC[C@@H]2CCN2C)cc1C(=O)NC1(c2cc(-c3ccc(F)c(Cl)c3)cc3ncccc23)CC1` [Compound 687, (S)—N-(1-(7-(3-Chloro-4-fluorophenyl)quinolin-5-yl)cyclopropyl)-2-methyl-5-((1-methylazetidin-2-yl)methoxy)benzamide], which IC50 is on record?
Answer: < 100 nM

Question: How did the IC50 turn out when `COc1cc(C2(NCc3cc(OCCN)ccc3C)CC2)c2cccnc2c1` [Compound 513] was run?
Answer: < 100 nM

Question: How did the IC50 turn out when `COc1cc(C2(NC(=O)c3cc(OCCN(C)CCF)ccc3C)CC2)c2cccnc2c1` [Compound 571, 5-(2-((2-Fluoroethyl)(methyl)amino)ethoxy)-N-(1-(7-methoxyquinolin-5-yl)cyclopropyl)-2-methylbenzamide] was run?
Answer: < 100 nM

Question: For `C=C(C)c1cc(C2(NC(=O)c3cc(OC[C@H](C)N)ccc3C)CC2)c2cccnc2c1` [Compound 734, (S)-5-(2-Aminopropoxy)-2-methyl-N-(1-(7-(prop-1-en-2-yl)quinolin-5-yl)cyclopropyl)benzamide], which IC50 is on record?
Answer: < 100 nM

same assay, conditions: SARS-CoV-2 PLpro enzymatic fluorescence assay; read-out: PLpro IC50

Question: `Cc1ccc(N2CCN(C)CC2)cc1C(=O)NC1(c2cccc3ccccc23)CC1` [Compound 418, 2-Methyl-5-(4-methylpiperazin-1-yl)-N-(1-(naphthalen-1-yl)cyclopropyl)benzamide] was tested. Which IC50 did it give?
Answer: < 100 nM

Question: How did the IC50 turn out when `CN(C)CCOc1ccc(Br)c(C(=O)NC2(c3cccc4ccccc34)CC2)c1` [Compound 269, 2-Bromo-5-(2-(dimethylamino)ethoxy)-N-(1-(naphthalen-1-yl)cyclopropyl)benzamide] was run?
Answer: 100 to 1000 nM

Question: For `Cc1cc2cc(CN)oc2cc1C(=O)NC1(c2cccc3ccccc23)CC1` [Compound 236], which IC50 is on record?
Answer: 100 to 1000 nM

Question: For `Cc1ccc(OCCN(C)C)cc1C(=O)NC1(c2ccc(Br)cc2)CC1` [Compound 258, N-(1-(4-Bromophenyl)cyclopropyl)-5-(2-(dimethylamino)ethoxy)-2-methylbenzamide], which IC50 is on record?
Answer: > 5000 nM

Question: Which IC50 does the source give for `Cc1ccc(OCC2CCN2C)cc1C(=O)NC1(c2cc(N)cc3ccccc23)CC1` (centres unmarked) [Compound 496, N-(1-(3-Aminonaphthalen-1-yl)cyclopropyl)-2-methyl-5-((1-methylazetidin-2-yl)methoxy)benzamide] here?
Answer: < 100 nM

Question: Which IC50 does the source give for `Cc1ccc(OC[C@@H]2CCN2C)cc1C(=O)NC1(c2cccc3ccccc23)CC1` [Compound 310, (S)-2-Methyl-5-((1-methylazetidin-2-yl)methoxy)-N-(1-(naphthalen-1-yl)cyclopropyl)benzamide] here?
Answer: < 100 nM

Question: `Cc1ccc(OC2CCCCN(C)C2)cc1C(=O)NC1(c2cccc3ccccc23)CC1` (centres unmarked) [Compound 293, 2-methyl-5-((1-methylazepan-3-yl)oxy)-N-(1-(naphthalen-1-yl)cyclopropyl)benzamide] was tested. Which IC50 did it give?
Answer: 100 to 1000 nM

Question: Which IC50 does the source give for `Cc1ccc(CC(N)=O)cc1C(=O)NC1(c2cccc3ccccc23)CC1` [Compound 312, 5-(2-Amino-2-oxoethyl)-2-methyl-N-(1-(naphthalen-1-yl)cyclopropyl)benzamide] here?
Answer: 100 to 1000 nM

Question: Which IC50 does the source give for `Cc1ccc(OCCN)cc1C(=O)N(C)C1(c2cccc3ccccc23)CC1` [Compound 211, 5-(2-Aminoethoxy)-N,2-dimethyl-N-(1-(naphthalen-1-yl)cyclopropyl)benzamide] here?
Answer: > 5000 nM

Question: For `Cc1cc2cccnc2cc1C(=O)N[C@H](C)c1cccc2ccccc12` [Compound 150, (R)-6-Methyl-N-(1-(naphthalen-1-yl)ethyl)quinoline-7-carboxamide], which IC50 is on record?
Answer: 1000 to 5000 nM

Question: Which IC50 does the source give for `Cc1ccc(OC[C@@H]2CCN2C)cc1C(=O)NC1(c2cc(OCc3ccccc3)cc3ncccc23)CC1` [Compound 598, (S)-N-(1-(7-(Benzyloxy)quinolin-5-yl)cyclopropyl)-2-methyl-5-((1-methylazetidin-2-yl)methoxy)benzamide] here?
Answer: < 100 nM

Question: How did the IC50 turn out when `Cc1ccc(OC[C@@H]2CCN2)cc1C(=O)NC1(c2cccc3ncccc23)CC1` [Compound 381, (S)-5-(Azetidin-2-ylmethoxy)-2-methyl-N-(1-(quinolin-5-yl)cyclopropyl)benzamide] was run?
Answer: < 100 nM

Question: Which IC50 does the source give for `Cc1cc2cnn(C3CNC3)c2cc1C(=O)NC1(c2cccc3ccccc23)CC1` [Compound 304, 1-(Azetidin-3-yl)-5-methyl-N-(1-(naphthalen-1-yl)cyclopropyl)-1H-indazole-6-carboxamide] here?
Answer: < 100 nM

Question: How did the IC50 turn out when `Cc1ccc(OCCN(C)C)cc1C(=O)NC1(c2cccc(C3=CCCCC3)c2)CC1` [Compound 338, 5-(2-(Dimethylamino)ethoxy)-2-methyl-N-(1-(2′,3′,4′,5′-tetrahydro-[1,1′-biphenyl]-3-yl)cyclopropyl)benzamide] was run?
Answer: 1000 to 5000 nM

Question: `Cc1ccc(N)cc1C(=O)NC1(c2cccc3ccccc23)CC1` [Compound 147, 5-Amino-2-methyl-N-(1-(naphthalen-1-yl)cyclopropyl)benzamide] was tested. Which IC50 did it give?
Answer: 100 to 1000 nM

Question: `Cc1ccc(OCCN(C)C)cc1C(=O)NC1(c2cccc3ccccc23)CC1` [Compound 214, 5-(2-(Dimethylamino)ethoxy)-2-methyl-N-(1-(naphthalen-1-yl)cyclopropyl)benzamide] was tested. Which IC50 did it give?
Answer: < 100 nM

Question: `Cc1cccc(C2(NC(=O)c3cc(OCCN(C)C)ccc3C)CC2)c1` [Compound 255, 5-(2-(Dimethylamino)ethoxy)-2-methyl-N-(1-(m-tolyl)cyclopropyl)benzamide] was tested. Which IC50 did it give?
Answer: > 5000 nM

Question: With `Cc1cc2cc(CN3CCOCC3)[nH]c2cc1C(=O)N[C@H](C)c1cccc2ccccc12` [Compound 206, (R)-5-Methyl-2-(morpholinomethyl)-N-(1-(naphthalen-1-yl)ethyl)-1H-indole-6-carboxamide] as the molecule, how does the IC50 read?
Answer: 1000 to 5000 nM
